# In US20150208654A1, “SEED COATING METHODS AND COMPOSITIONS WITH A RYANODINE RECEPTOR BINDING AGENT” (PIONEER HI-BRED INTERNATIONAL, INC., priority 2012, published 2015):
# Experiments:
# Type in all cases: in vivo
# [1] = tested on: velvetbean caterpillar (VBC) (Anticarsia gemmatalis); experiment: Laboratory-field leaf bio-assay (LBF) on leaves of soybean plants grown from treated seeds; details: seed treatment 120 ug ai/seed, 2nd instar larvae
# Procedure: Soybean seeds were treated with chlorantraniliprole at rates of 120 ug ai/seed. The seeds were sown into soil bed fields with a size of 6 meters in length and 4 rows of 40 cm in width. Leaf samples were collected at the 3rd to the 7th soybean trifoliate growth stage and brought to the laboratory. Laboratory-field leaf bio-assay (LBF) was performed for each soybean growth stage using velvetbean caterpillar (VBC) (Anticarsia gemmatalis) exposing the leaves to 2nd instar larvae stage. Each treatment group was replicated 4 times, and results (Table 2) are expressed as % larval mortality. At 43 days after planting, the VBC larval mortality rate was 88%.
# [2] = tested on: velvetbean caterpillar (VBC) (Anticarsia gemmatalis); experiment: Field plot larvae count on soybean grown from treated seeds (area 1); details: 100 ug ai/seed, compared to untreated
# Procedure: (§1) Soybean seeds were treated with chlorantraniliprole at rate of 100 ug ai/seed. The seeds were sown into soil bed fields (area 1) with a size of 8 meters by 8 meters in size, with an area of 64 m2. Plots were replicated 4 times. Evaluation was based on the total number of velvetbean caterpillar (VBC) (Anticarsia gemmatalis) larvae per meter at 37 to 63 days after planting (DAP), and converted to % larvae count reduction compared to the untreated (Table 3). 50 days after planting, the VBC larvae reduction was still 73%, and after 63 days had activity at 35%.
# [3] = tested on: velvetbean caterpillar (VBC) (Anticarsia gemmatalis); experiment: Field plot larvae count on soybean grown from treated seeds (area 2); details: 100 ug ai/seed, compared to untreated
# Procedure: as §1, with “2)” for “1)”, “untreated.” for “untreated (Table 3). 50 days after planting, the VBC larvae reduction was still 73%, and after 63 days had activity at 35%.”
compound,measurement,setting,value
"CNC(=O)c1cc(Cl)cc(C)c1NC(=O)c1cc(Br)nn1-c1ncccc1Cl [Chlorantraniliprole, chlorantraniliprole]",% VBC larval mortality,"[1]; 3rd trifoliate, 25 DAP",100%
same,% VBC larval mortality,"[1]; 4th trifoliate, 29 DAP",94%
same,% VBC larval mortality,"[1]; 5th trifoliate, 36 DAP",91%
same,% VBC larval mortality,"[1]; 7th trifoliate, 43 DAP",88%
same,% VBC larvae reduction,[2]; 37 DAP,20%
same,% VBC larvae reduction,[2]; 50 DAP,73%
same,% VBC larvae reduction,[2]; 63 DAP,35%
same,% VBC larvae reduction,[3]; 37 DAP,25%
same,% VBC larvae reduction,[3]; 50 DAP,20%
same,% VBC larvae reduction,[3]; 63 DAP,43%
